Assay results as given in PubChem BioAssay AID2060909 (Molecular Pharmacology Branch, DTP, NCI, 2025).

Tested on: 362531-283-R-J2-PDC complex spheroid viability
Experiment: Anticancer human tumor 362531-283-R-J2-PDC patient-derived colon adenocarcinoma cell line growth inhibition [RAS]
Conditions: for viability, T/C: stronger effect = lower value
Summary of the method: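 Tumour cells grown as complex spheroids with HUVEC endothelial cells and mesenchymal stem cells, treated with RAS pathway inhibitor combinations. Each agent spans half-log steps from near clinical Cmax, or 10 microM where Cmax is unknown.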

[1] = curve of first compound, second compound 0.0316 µM
[2] = curve of first compound, second compound 0.1 µM
[3] = curve of first compound, second compound 0.316 µM
[4] = curve of first compound, second compound 1 µM
[5] = curve of first compound, second compound 3.16 µM
[6] = curve of first compound, second compound 10 µM
[7] = second compound 0.0316 µM, first compound 0.0316 µM
[8] = second compound 0.0316 µM, first compound 0.1 µM
[9] = second compound 0.1 µM, first compound 0.0316 µM
[10] = second compound 0.1 µM, first compound 0.1 µM
[11] = second compound 0.316 µM, first compound 0.0316 µM
[12] = second compound 0.316 µM, first compound 0.1 µM
[13] = second compound 1 µM, first compound 0.0316 µM
[14] = second compound 1 µM, first compound 0.1 µM
[15] = second compound 3.16 µM, first compound 0.0316 µM
[16] = second compound 3.16 µM, first compound 0.1 µM
[17] = second compound 10 µM, first compound 0.0316 µM
[18] = second compound 10 µM, first compound 0.1 µM
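Also: spheroids exposed to the agents for 7 days before readout.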
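For viability, T/C in this document: luminescence viability as percent of DMSO vehicle control wells.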

## CC(C)n1nc(-c2ccc3oc(N)nc3c2)c2c(N)ncnc21 + C#Cc1c(F)ccc2cc(O)cc(-c3ncc4c(N5CC6CCC(C5)N6)nc(OCC56CCCN5CC(F)C6)nc4c3F)c12
[1]
  IC50: > 100 nM
[2]
  IC50: > 100 nM
[3]
  IC50: 20.5 nM
[4]
  IC50: 13.1 nM
[5]
  IC50: 3.09 nM
[6]
  IC50: < 0.316 nM
Second compound 0.0316 µM, first compound 0.000316 µM
  viability, T/C: 96%
Second compound 0.0316 µM, first compound 0.001 µM
  viability, T/C: 87.6%
Second compound 0.0316 µM, first compound 0.00316 µM
  viability, T/C: 91.9%
Second compound 0.0316 µM, first compound 0.01 µM
  viability, T/C: 78.7%
[7]
  viability, T/C: 50.2%
[8]
  viability, T/C: 53.2%
Second compound 0.1 µM, first compound 0.000316 µM
  viability, T/C: 104%
Second compound 0.1 µM, first compound 0.001 µM
  viability, T/C: 98%
Second compound 0.1 µM, first compound 0.00316 µM
  viability, T/C: 86.3%
Second compound 0.1 µM, first compound 0.01 µM
  viability, T/C: 68%
[9]
  viability, T/C: 66.6%
[10]
  viability, T/C: 48.7%
Second compound 0.316 µM, first compound 0.000316 µM
  viability, T/C: 91.9%
Second compound 0.316 µM, first compound 0.001 µM
  viability, T/C: 94.5%
Second compound 0.316 µM, first compound 0.00316 µM
  viability, T/C: 85.6%
Second compound 0.316 µM, first compound 0.01 µM
  viability, T/C: 62.5%
[11]
  viability, T/C: 41.1%
[12]
  viability, T/C: 41.5%
Second compound 1 µM, first compound 0.000316 µM
  viability, T/C: 80.4%
Second compound 1 µM, first compound 0.001 µM
  viability, T/C: 86.2%
Second compound 1 µM, first compound 0.00316 µM
  viability, T/C: 78.2%
Second compound 1 µM, first compound 0.01 µM
  viability, T/C: 51.9%
[13]
  viability, T/C: 45.9%
[14]
  viability, T/C: 38.4%
Second compound 3.16 µM, first compound 0.000316 µM
  viability, T/C: 74.2%
Second compound 3.16 µM, first compound 0.001 µM
  viability, T/C: 55.2%
Second compound 3.16 µM, first compound 0.00316 µM
  viability, T/C: 57.4%
Second compound 3.16 µM, first compound 0.01 µM
  viability, T/C: 35.3%
[15]
  viability, T/C: 33.6%
[16]
  viability, T/C: 26.1%
Second compound 10 µM, first compound 0.000316 µM
  viability, T/C: 42.9%
Second compound 10 µM, first compound 0.001 µM
  viability, T/C: 42.5%
Second compound 10 µM, first compound 0.00316 µM
  viability, T/C: 34%
Second compound 10 µM, first compound 0.01 µM
  viability, T/C: 25.5%
[17]
  viability, T/C: 20.1%
[18]
  viability, T/C: 18.3%

## CCn1c(-c2cc(N3CCN(C)CC3)cnc2C(C)OC)c2c3cc(ccc31)-c1csc(n1)CC(NC(=O)C1CC1C)C(=O)N1CCCC(N1)C(=O)OCC(C)(C)C2 (stereo unspecified)
Compound 0.000949 µM
  viability, T/C: 99% [middle of 8 runs]
Compound 0.003 µM
  viability, T/C: 101% [middle of 8 runs]
Compound 0.00949 µM
  viability, T/C: 100% [middle of 8 runs]
Compound 0.03 µM
  viability, T/C: 99.5% [middle of 8 runs]
Compound 0.0949 µM
  viability, T/C: 82.8% [middle of 7 runs]
Compound 0.3 µM
  viability, T/C: 38.5% [middle of 8 runs]
Compound alone, run of 07/09/2024
  IC50: 223 nM [middle of 8 runs]

## CC(C)NCC(C(=O)N1CCN(c2ncnc3c2C(C)CC3O)CC1)c1ccc(Cl)cc1 (stereo unspecified) + C#Cc1c(F)ccc2cc(O)cc(-c3ncc4c(N5CC6CCC(C5)N6)nc(OCC56CCCN5CC(F)C6)nc4c3F)c12
[1]
  IC50: > 10000 nM
[2]
  IC50: > 10000 nM
[3]
  IC50: > 10000 nM
[4]
  IC50: > 10000 nM
[5]
  IC50: > 10000 nM
[6]
  IC50: < 31.6 nM
[7]
  viability, T/C: 98.4%
[8]
  viability, T/C: 100%
Second compound 0.0316 µM, first compound 0.316 µM
  viability, T/C: 89.4%
Second compound 0.0316 µM, first compound 1 µM
  viability, T/C: 102%
Second compound 0.0316 µM, first compound 3.16 µM
  viability, T/C: 96.7%
Second compound 0.0316 µM, first compound 10 µM
  viability, T/C: 87.5%
[9]
  viability, T/C: 84.4%
[10]
  viability, T/C: 105%
Second compound 0.1 µM, first compound 0.316 µM
  viability, T/C: 94.9%
Second compound 0.1 µM, first compound 1 µM
  viability, T/C: 96.6%
Second compound 0.1 µM, first compound 3.16 µM
  viability, T/C: 102%
Second compound 0.1 µM, first compound 10 µM
  viability, T/C: 95%
[11]
  viability, T/C: 94%
[12]
  viability, T/C: 95.5%
Second compound 0.316 µM, first compound 0.316 µM
  viability, T/C: 92.6%
Second compound 0.316 µM, first compound 1 µM
  viability, T/C: 82.4%
Second compound 0.316 µM, first compound 3.16 µM
  viability, T/C: 83.7%
Second compound 0.316 µM, first compound 10 µM
  viability, T/C: 65.1%
[13]
  viability, T/C: 79.9%
[14]
  viability, T/C: 88.1%
Second compound 1 µM, first compound 0.316 µM
  viability, T/C: 78.3%
Second compound 1 µM, first compound 1 µM
  viability, T/C: 81%
Second compound 1 µM, first compound 3.16 µM
  viability, T/C: 81.1%
Second compound 1 µM, first compound 10 µM
  viability, T/C: 75.5%
[15]
  viability, T/C: 61.5%
[16]
  viability, T/C: 73.6%
Second compound 3.16 µM, first compound 0.316 µM
  viability, T/C: 66.9%
Second compound 3.16 µM, first compound 1 µM
  viability, T/C: 87%
Second compound 3.16 µM, first compound 3.16 µM
  viability, T/C: 63%
Second compound 3.16 µM, first compound 10 µM
  viability, T/C: 53.2%
[17]
  viability, T/C: 43.3%
[18]
  viability, T/C: 39.6%
Second compound 10 µM, first compound 0.316 µM
  viability, T/C: 43.9%
Second compound 10 µM, first compound 1 µM
  viability, T/C: 47%
Second compound 10 µM, first compound 3.16 µM
  viability, T/C: 50.6%
Second compound 10 µM, first compound 10 µM
  viability, T/C: 39.3%
